Results reported in patent US6416949B1, “Method of synthesizing diverse collections of oligomers” (Affymax, Inc., priority 1991, dated 2002).

Key:
Monoclonal antibody 3E7 [1] = assay: magnetic selection of peptide beads by microbead-conjugated 3E7, analysed by flow cytometry; format: binding; conditions: 16 hr incubation at 4 degrees C in PBS, high strength magnet
Experimental: After a 16 hr incubation at 4 degrees C, beads which bind the 3E7 antibody are selected using a high strength magnet. The selected beads are then analyzed by flow cytometry.

Monoclonal antibody 3E7 [2] = assay: staining of peptide beads with fluorescently labeled antibody 3E7 and FACS sorting; format: binding; conditions: peptide on oligonucleotide-tagged beads
Experimental: The beads coupled with the 95 mer and YGGFL were mixed with the beads that were coupled to the 110 mer and F in the ratio of 1:20. Thus, 0.1 mg of 95 mer/YGGFL beads (2 million beads) were mixed with 2.0 mg of the 110 mer/Phe beads (40 million beads). The mixture was suspended in blocking buffer (PBS, 1% BSA, and 0.05% Tween-20) and incubated at room temperature for 1 hr. The beads were next pelleted by centrifugation and resuspended in a solution of an FITC-labeled monoclonal antibody 3E7 that binds the peptide YGGFL (1 μg/mL). The suspension was incubated 0.5 hr on ice and then centrifuged to isolate the bead pellet.
The beads were resuspended in PBS for delivery into the fluorescence activated cell sorting (FACS) instrument (Becton Dickinson FACSORT Plus). Beads that had bound to the fluorescently labeled antibody were identified by their acquired fluorescence, and fluorescent beads were isolated by sorting into PCR tubes. One, ten, or one hundred fluorescent beads were sorted into each PCR tube. […]
The beads were resuspended in PBS for delivery into the fluorescence activated cell sorting (FACS) instrument (Becton Dickinson FACSORT Plus). Beads that had bound to the fluorescently labeled antibody were identified by their acquired fluorescence (see FIG. 10), and homogeneous samples of either fluorescent or non-fluorescent beads were isolated by sorting into PCR tubes. […]

Monoclonal antibody 3E7 [3] = conditions: solution assay, MAb 3E7; read-out: equilibrium binding constant (Kd); cited from earlier work

pentapeptide L-Tyr-Gly-Gly-L-Phe-L-Leu, ligand of monoclonal antibody 3E7 [YGGFL]
selection of peptide-bearing beads by 3E7 antibody (Monoclonal antibody 3E7 [1]): only beads displaying the peptide YGGFL are selected
binding of the peptide by fluorescently labeled antibody 3E7 (Monoclonal antibody 3E7 [2]): high affinity
Kd (Monoclonal antibody 3E7 [3]): 6.6 nM
